Source: PubChem BioAssay AID248 (DTP/NCI, 2004)
Where “and” joins values, the source holds several entries; their conditions need not be identical. Equal entries are not always repeated. Toxic doses and inconclusive results are not listed. Cut-off read from the data, not from the text of the source: active = T/C of 150% or more; inactive = T/C below 125%.

Test system: L1210 leukemia ip in BDF1 mice, survival T/C
Experiment: NCI In Vivo Anticancer Drug Screen. Data for tumor model L1210 Leukemia (intraperitoneal) in B6D2F1 (BDF1) mice
Settings: endpoint: mean survival time, higher = longer survival
How it was run: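 Mice bearing the transplanted tumor received compound or vehicle. Survival of the treated group was divided by that of the vehicle-treated control group to give the ratio.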

[1] = dose: 100.0 mg/kg/injection, schedule: Q01DX009 (ip), vehicle: saline with Tween-80
[2] = dose: 100.0 mg/kg/injection, schedule: Q04DX002 (ip), vehicle: saline with Tween-80
[3] = dose: 100.0 mg/kg/injection, schedule: Q04DX003 (ip), vehicle: saline with Tween-80
[4] = dose: 200.0 mg/kg/injection, schedule: Q01DX009 (ip), vehicle: saline with Tween-80
[5] = dose: 200.0 mg/kg/injection, schedule: Q04DX002 (ip), vehicle: saline with Tween-80
[6] = dose: 200.0 mg/kg/injection, schedule: Q04DX003 (ip), vehicle: saline with Tween-80
[7] = dose: 400.0 mg/kg/injection, schedule: Q01DX009 (ip), vehicle: saline with Tween-80
[8] = dose: 400.0 mg/kg/injection, schedule: Q04DX003 (ip), vehicle: saline with Tween-80
[9] = dose: 100.0 mg/kg/injection, schedule: Q01DX001 (ip), vehicle: carboxymethylcellulose (CMC)
[10] = dose: 200.0 mg/kg/injection, schedule: Q01DX001 (ip), vehicle: carboxymethylcellulose (CMC)
[11] = dose: 400.0 mg/kg/injection, schedule: Q01DX001 (ip), vehicle: carboxymethylcellulose (CMC)
[12] = dose: 100.0 mg/kg/injection, schedule: Q01DX001 (ip), vehicle: saline
[13] = dose: 200.0 mg/kg/injection, schedule: Q01DX001 (ip), vehicle: saline
[14] = dose: 400.0 mg/kg/injection, schedule: Q01DX001 (ip), vehicle: saline
[15] = dose: 75.0 mg/kg/injection, schedule: Q01DX001 (ip), vehicle: other
[16] = dose: 100.0 mg/kg/injection, schedule: Q01DX009 (ip), vehicle: Klucel (hydroxypropylcellulose) (HPC)
[17] = dose: 200.0 mg/kg/injection, schedule: Q01DX009 (ip), vehicle: Klucel (hydroxypropylcellulose) (HPC)

Measured: T/C

Cc1c(Cl)cccc1NC(=S)NC(=O)/C=C/c1ccccc1
inactive: dose: 50.0 mg/kg/injection, schedule: Q04DX003 (ip), vehicle: saline with Tween-80 96 % of control | dose: 100.0 mg/kg/injection, schedule: Q01DX001 (ip), vehicle: saline with Tween-80 90 % of control | [1] 98 % of control and 92 % of control | [2] 96 % of control and 87 % of control | [3] 93 % of control and 102 % of control | [4] 95 % of control and 98 % of control | [5] 107 % of control and 116 % of control | [6] 101 % of control | dose: 400.0 mg/kg/injection, schedule: Q01DX001 (ip), vehicle: saline with Tween-80 93 % of control | [7] 95 % of control and 90 % of control | dose: 400.0 mg/kg/injection, schedule: Q04DX002 (ip), vehicle: saline with Tween-80 111 % of control and 112 % of control | [8] 102 % of control and 88 % of control

CC[N+](CC)(CC)CCCNC(c1ccccc1)C(Cl)(Cl)Cl (stereo not given)
inactive: dose: 12.5 mg/kg/injection, schedule: Q01DX001 (ip), vehicle: saline 95 % of control | dose: 25.0 mg/kg/injection, schedule: Q01DX001 (ip), vehicle: saline 97 % of control | dose: 50.0 mg/kg/injection, schedule: Q01DX001 (ip), vehicle: saline 95 % of control

O=C(c1ccccn1)c1nnn2ccccc12
inactive: [2] 91 % of control | [5] 87 % of control

CCCC(=O)OCC1CO1 (stereo not given)
inactive: dose: 100.0 mg/kg/injection, schedule: Q01DX001 (ip), vehicle: Klucel (hydroxypropylcellulose) (HPC) 100 % of control | dose: 100.0 mg/kg/injection, schedule: Q04DX003 (ip), vehicle: Klucel (hydroxypropylcellulose) (HPC) 104 % of control | dose: 200.0 mg/kg/injection, schedule: Q01DX001 (ip), vehicle: Klucel (hydroxypropylcellulose) (HPC) 104 % of control | dose: 200.0 mg/kg/injection, schedule: Q04DX003 (ip), vehicle: Klucel (hydroxypropylcellulose) (HPC) 98 % of control | dose: 400.0 mg/kg/injection, schedule: Q01DX001 (ip), vehicle: Klucel (hydroxypropylcellulose) (HPC) 102 % of control | dose: 400.0 mg/kg/injection, schedule: Q04DX003 (ip), vehicle: Klucel (hydroxypropylcellulose) (HPC) 106 % of control

N=C1c2ccccc2-c2ccccc21
inactive: [3] 96 % of control | [6] 88 % of control

COc1ccc(-c2cc(-c3ccccc3)[nH]c(=O)c2N(C)C)cc1
inactive: [9] 97 % of control | [10] 91 % of control | [11] 97 % of control

CCOC(=O)C1=NN(c2ccccc2)C(=O)C1N=Nc1ccc(S(N)(=O)=O)cc1 (stereo not given)
inactive: [12] 95 % of control | [13] 93 % of control | [14] 93 % of control

O=[N+]([O-])c1ccc(S(=O)(=O)O)c([N+](=O)[O-])c1.[Ag]
inactive: dose: 3.12 mg/kg/injection, schedule: Q01DX009 (ip), vehicle: DMSO 95 % of control | dose: 6.25 mg/kg/injection, schedule: Q01DX009 (ip), vehicle: DMSO 97 % of control | dose: 12.5 mg/kg/injection, schedule: Q01DX009 (ip), vehicle: DMSO 95 % of control | dose: 12.5 mg/kg/injection, schedule: Q01DX009 (ip), vehicle: other 93 % of control | dose: 12.5 mg/kg/injection, schedule: Q04DX003 (ip), vehicle: other 104 % of control | dose: 25.0 mg/kg/injection, schedule: Q04DX003 (ip), vehicle: other 98 % of control | dose: 50.0 mg/kg/injection, schedule: Q04DX003 (ip), vehicle: other 103 % of control

COC1=C(Br)C(=O)c2ncccc2C1=O
inactive: dose: 5.0 mg/kg/injection, schedule: Q01DX001 (ip), vehicle: carboxymethylcellulose (CMC) 104 % of control | dose: 20.0 mg/kg/injection, schedule: Q01DX001 (ip), vehicle: carboxymethylcellulose (CMC) 94 % of control

OCCCCCCN=Cc1ccccc1O.OCCCCCCN=Cc1ccccc1O.[Cu]
inactive: dose: 9.5 mg/kg/injection, schedule: Q01DX001 (ip), vehicle: other 95 % of control | dose: 19.0 mg/kg/injection, schedule: Q01DX001 (ip), vehicle: other 100 % of control and 92 % of control | dose: 19.0 mg/kg/injection, schedule: Q01DX009 (ip), vehicle: other 93 % of control | dose: 38.0 mg/kg/injection, schedule: Q01DX001 (ip), vehicle: other 94 % of control and 95 % of control | dose: 38.0 mg/kg/injection, schedule: Q01DX009 (ip), vehicle: other 95 % of control | [15] 95 % of control and 102 % of control | dose: 75.0 mg/kg/injection, schedule: Q01DX009 (ip), vehicle: other 96 % of control

O=C(N/N=C\c1ccc(Cl)cc1)C(O)C(O)C(O)C(O)CO (stereo not given)
inactive: [16] 100 % of control | [17] 91 % of control | dose: 400.0 mg/kg/injection, schedule: Q01DX009 (ip), vehicle: Klucel (hydroxypropylcellulose) (HPC) 89 % of control

CCNC(=S)N(CC)CC
inactive: dose: 50.0 mg/kg/injection, schedule: Q01DX009 (ip), vehicle: Klucel (hydroxypropylcellulose) (HPC) 104 % of control | [16] 102 % of control | [3] 100 % of control | [17] 114 % of control | [6] 103 % of control

CC1(C)OCC(CO)O1 (stereo not given)
inactive: [1] 101 % of control | [3] 105 % of control | [4] 98 % of control | [6] 97 % of control | [7] 104 % of control | [8] 100 % of control

O=C1CCCN(Cc2ccccc2)C(=O)N1
inactive: [1] 97 % of control | [3] 103 % of control | [4] 97 % of control | [6] 103 % of control | [7] 97 % of control | [8] 103 % of control

c1ccc(COC2NCCN2Cc2ccccc2)cc1 (stereo not given)
inactive: [12] 98 % of control | [13] 101 % of control | [14] 101 % of control

COc1cc(C=Nc2ccc(Cl)cc2)ccc1OC(=O)c1ccccc1
inactive: [2] 91 % of control | [5] 87 % of control

O=[N+]([O-])C1C(O)CCCC1O (stereo not given)
inactive: [12] 102 % of control | [13] 102 % of control | [14] 105 % of control

O=C1OC(=C(Br)Br)C2C3C=CC(C3)C12 (stereo not given)
inactive: dose: 100.0 mg/kg/injection, schedule: Q04DX003 (ip), vehicle: saline 98 % of control | dose: 200.0 mg/kg/injection, schedule: Q04DX003 (ip), vehicle: saline 107 % of control

O=C(O)c1cccc(Br)c1.[Ni]
inactive: dose: 25.0 mg/kg/injection, schedule: Q04DX002 (ip), vehicle: Klucel (hydroxypropylcellulose) (HPC) 100 % of control | dose: 50.0 mg/kg/injection, schedule: Q04DX002 (ip), vehicle: Klucel (hydroxypropylcellulose) (HPC) 106 % of control

Nc1nc(N)c(CCCOc2cccc(Cl)c2Cl)c(N)n1
inactive: dose: 87.5 mg/kg/injection, schedule: Q01DX009 (ip), vehicle: Klucel (hydroxypropylcellulose) (HPC) 95 % of control | dose: 175.0 mg/kg/injection, schedule: Q01DX009 (ip), vehicle: Klucel (hydroxypropylcellulose) (HPC) 88 % of control | dose: 350.0 mg/kg/injection, schedule: Q01DX009 (ip), vehicle: Klucel (hydroxypropylcellulose) (HPC) 106 % of control

CCN(c1ccccc1)c1ccc([N+](=O)[O-])cc1[N+](=O)[O-]
inactive: [9] 107 % of control | [10] 91 % of control | [11] 100 % of control

[O-][n+]1ccnc(C(Cl)(Cl)Cl)c1Cl
inactive: dose: 0.78 mg/kg/injection, schedule: Q01DX009 (ip), vehicle: other 90 % of control | dose: 1.56 mg/kg/injection, schedule: Q01DX009 (ip), vehicle: other 107 % of control | dose: 3.12 mg/kg/injection, schedule: Q01DX009 (ip), vehicle: other 86 % of control

CC(C)C(Br)C(=O)NC(Cc1ccccc1)C(=O)O (stereo not given)
inactive: [1] 96 % of control | [4] 96 % of control | [7] 92 % of control

C1=C(c2ccccc2)N(C2CCCCCCC2)C(c2ccccc2)=CN1Cc1ccccc1
inactive: dose: 100.0 mg/kg/injection, schedule: Q04DX002 (ip), vehicle: Klucel (hydroxypropylcellulose) (HPC) 103 % of control | dose: 200.0 mg/kg/injection, schedule: Q04DX002 (ip), vehicle: Klucel (hydroxypropylcellulose) (HPC) 103 % of control | dose: 400.0 mg/kg/injection, schedule: Q04DX002 (ip), vehicle: Klucel (hydroxypropylcellulose) (HPC) 100 % of control

[O-][N+](=Nc1ccc2c(c1)Cc1ccccc1-2)c1ccc2c(c1)Cc1ccccc1-2
inactive: [3] 96 % of control | [6] 92 % of control | [8] 91 % of control

COc1ccc(-c2n[nH]c(C(F)(F)F)c2N=NN(C)C)cc1OC
inactive: [15] 93 % of control | dose: 150.0 mg/kg/injection, schedule: Q01DX001 (ip), vehicle: other 94 % of control | dose: 300.0 mg/kg/injection, schedule: Q01DX001 (ip), vehicle: other 91 % of control
